Assay results taken from patent US6784181B2, “Piperazine-containing compounds useful in the treatment of pain” (AstraZeneca AB, priority 1999, dated 2004).
Structures can show the parent of a compound that is named as a salt. Where two headings read alike, the source gives them in different places.

Experiments:
RAT BRAIN = RAT BRAIN (Rattus norvegicus, UniProt P33533); assay: Functional agonism rat brain (EC50, % EMAX); format: biochemical
HDELTA = biological target: T1, HDELTA (Homo sapiens, UniProt P41143); assay: Functional agonism HDELTA (EC50, % EMAX); format: biochemical
T1 construct: expressed in transfected cells

[1] = biological target: T2, cloned human δ receptors (HDELTA) (Homo sapiens, UniProt P41143); assay: Binding assay, membranes of 293S cells expressing cloned human δ receptor
T2 construct: expressed in transfected cells; host or cells: human 293S cells (geneticin-selected), membranes

MOUSE BRAIN = MOUSE BRAIN (Mus musculus, UniProt P32300); assay: Functional agonism mouse brain (EC50, % EMAX); format: biochemical
[2] = Metabolic stability MLM (% remaining); format: in vitro ADME, mouse
[3] = Metabolic stability RLM (% remaining); format: in vitro ADME, rat
[4] = displacement of radioligand, human δ receptor membranes, read-out: HDELTA

Sequence of MOUSE BRAIN (P32300 whole entry): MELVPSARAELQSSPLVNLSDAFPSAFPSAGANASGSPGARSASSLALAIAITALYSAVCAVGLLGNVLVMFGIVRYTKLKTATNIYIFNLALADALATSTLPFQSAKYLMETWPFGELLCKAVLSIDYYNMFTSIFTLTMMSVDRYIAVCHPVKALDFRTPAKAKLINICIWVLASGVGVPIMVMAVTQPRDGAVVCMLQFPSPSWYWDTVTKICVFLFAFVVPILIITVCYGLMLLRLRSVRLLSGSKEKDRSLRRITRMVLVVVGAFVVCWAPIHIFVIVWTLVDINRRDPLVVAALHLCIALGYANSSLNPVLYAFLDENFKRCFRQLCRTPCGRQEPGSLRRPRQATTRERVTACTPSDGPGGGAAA
Sequence of RAT BRAIN (P33533 whole entry): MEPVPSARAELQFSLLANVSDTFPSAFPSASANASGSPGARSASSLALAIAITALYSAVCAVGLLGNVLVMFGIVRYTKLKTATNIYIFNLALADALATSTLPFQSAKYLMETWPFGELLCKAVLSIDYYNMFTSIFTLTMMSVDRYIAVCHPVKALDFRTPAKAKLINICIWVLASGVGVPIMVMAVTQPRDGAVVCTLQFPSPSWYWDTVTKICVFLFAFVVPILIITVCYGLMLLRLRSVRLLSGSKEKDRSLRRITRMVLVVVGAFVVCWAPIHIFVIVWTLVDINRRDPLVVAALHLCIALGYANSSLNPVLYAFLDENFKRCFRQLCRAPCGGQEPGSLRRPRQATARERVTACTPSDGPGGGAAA
T1 sequence (P41143 whole entry): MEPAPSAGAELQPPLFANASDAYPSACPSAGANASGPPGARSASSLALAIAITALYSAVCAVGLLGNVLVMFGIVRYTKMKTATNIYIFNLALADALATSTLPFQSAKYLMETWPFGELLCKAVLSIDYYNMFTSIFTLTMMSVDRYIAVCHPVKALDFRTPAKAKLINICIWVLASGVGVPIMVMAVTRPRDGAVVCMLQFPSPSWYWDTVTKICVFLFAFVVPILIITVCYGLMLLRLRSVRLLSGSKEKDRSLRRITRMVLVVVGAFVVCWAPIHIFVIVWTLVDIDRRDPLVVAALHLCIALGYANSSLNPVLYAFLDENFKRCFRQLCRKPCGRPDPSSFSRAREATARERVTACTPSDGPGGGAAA
T2 sequence (P41143 whole entry): as above

## CCN(CC)C(=O)c1ccc(C(c2cccc3cccnc23)N2CCN(Cc3ccccn3)CC2)cc1 (stereo not drawn) [Example 12, N,N-diethyl-4-[[4-(2-pyridinylmethyl)-1-piperazinyl](8-quinolinyl)methyl]benzamide Dihydrochloride]
RAT BRAIN
  Emax: 106%
HDELTA
  EC50: 0.76 nM
  Emax: 97.7%
[1]
  IC50: 0.692 nM
MOUSE BRAIN
  Emax: 91.3%
[2]
  MLM 10000 % rem.: 0 % rem.
  MLM 100000 % rem.: 53.5 % rem.
[3]
  RLM 10000 % rem.: 21.5 % rem.
  RLM 100000 % rem.: 66 % rem.

## CCN(CC)C(=O)c1ccc(C(c2cccc3cccnc23)N2CCN(Cc3ccsc3)CC2)cc1 (stereo not drawn) [Example 13, N,N-diethyl-4-[[4-(3-thienylmethyl)-1-piperazinyl](8-quinolinyl)methyl]benzamide]
RAT BRAIN
  Emax: 112%
HDELTA
  EC50: 1.44 nM
  Emax: 101%
[1]
  IC50: 1.03 nM
MOUSE BRAIN
  Emax: 113%
[2]
  MLM 10000 % rem.: 1.667 % rem.
  MLM 100000 % rem.: 71.667 % rem.
[3]
  RLM 10000 % rem.: 10 % rem.
  RLM 100000 % rem.: 62.667 % rem.

## CCN(CC)C(=O)c1ccc(C(c2cccc3cccnc23)N2CCN(Cc3ccco3)CC2)cc1 (stereo not drawn) [Example 14, N,N-diethyl-4-[[4-(2-furanylmethyl)-1-piperazinyl](8-quinolinyl)methyl]benzamide]
RAT BRAIN
  Emax: 102%
HDELTA
  EC50: 0.76 nM
  Emax: 88.7%
[1]
  IC50: 0.181 nM
MOUSE BRAIN
  Emax: 106%
[2]
  MLM 10000 % rem.: 0 % rem.
  MLM 100000 % rem.: 49 % rem.
[3]
  RLM 10000 % rem.: 13.5 % rem.
  RLM 100000 % rem.: 84.5 % rem.

## CCN(CC)C(=O)c1ccc(C(c2cccc3cccnc23)N2CCN(Cc3ccoc3)CC2)cc1 (stereo not drawn) [Example 15, N,N-diethyl-4-[[4-(3-furanylmethyl)-1-piperazinyl](8-quinolinyl)methyl]benzamide]
RAT BRAIN
  Emax: 109%
HDELTA
  EC50: 0.79 nM
  Emax: 89%
[1]
  IC50: 0.787 nM
MOUSE BRAIN
  Emax: 110%
[2]
  MLM 10000 % rem.: 0 % rem.
  MLM 100000 % rem.: 68 % rem.
[3]
  RLM 10000 % rem.: 10 % rem.
  RLM 100000 % rem.: 86 % rem.

## CCN(CC)C(=O)c1ccc(C(c2cccc3cccnc23)N2CCN(Cc3cccs3)CC2)cc1.Cl.Cl (stereo not drawn) [Example 16, N,N-diethyl-4-[[4-(2-thiophenylmethyl)-1-piperazinyl](8-quinolinyl)methyl]benzamide Dihydrochloride]
RAT BRAIN
  Emax: 100%
HDELTA
  EC50: 2.39 nM
  Emax: 99.4%
[1]
  IC50: 1.51 nM
MOUSE BRAIN
  Emax: 98.4%
[2]
  MLM 10000 % rem.: 0.5 % rem.
  MLM 100000 % rem.: 46.5 % rem.
[3]
  RLM 10000 % rem.: 9.5 % rem.
  RLM 100000 % rem.: 64.5 % rem.

## CCN(CC)C(=O)c1ccc(C(c2cccc3cccnc23)N2CCN(Cc3ncc[nH]3)CC2)cc1.Cl.Cl (stereo not drawn) [Example 17, N,N-diethyl-4-[[4-(2-imidazolylmethyl)-1-piperazinyl](8-quinolinyl)methyl]benzamide Dihydrochloride]
RAT BRAIN
  Emax: 106%
HDELTA
  EC50: 3.03 nM
  Emax: 95.7%
[1]
  IC50: 1.09 nM
MOUSE BRAIN
  Emax: 92.5%
[2]
  MLM 10000 % rem.: 0 % rem.
  MLM 100000 % rem.: 21.5 % rem.
[3]
  RLM 10000 % rem.: 5.5 % rem.
  RLM 100000 % rem.: 75 % rem.

## CCN(CC)C(=O)c1ccc(C(c2cccc3cccnc23)N2CCN(Cc3c[nH]cn3)CC2)cc1 (stereo not drawn) [Example 18, N,N-diethyl-4-[[4-(4-imidazolylmethyl)-1-piperazinyl](8-quinolinyl)methyl]benzamide Dihydrochloride]
RAT BRAIN
  Emax: 111%
HDELTA
  Emax: 93.8%
HDELTA; read-out: HDELTA EC50
  EC50: 5.85 nM
[1]; [4]
  IC50: 1.54 nM
MOUSE BRAIN
  Emax: 108%

## CCN(CC)C(=O)c1ccc(C(c2cccc3cccnc23)N2CCN(Cc3nc[nH]n3)CC2)cc1.Cl.Cl (stereo not drawn) [Example 19, N,N-diethyl-4-[[4-(3-triazolylmethyl)-1-piperazinyl](8-quinolinyl)methyl]benzamide Dihydrochloride]
RAT BRAIN
  EC50: 2810 nM
  RAT BRAIN % EMAX: 56.35%
HDELTA
  HDELTA % EMAX: 97.88%
HDELTA; read-out: HDELTA EC50
  EC50: 85.2 nM
[1]; [4]
  IC50: 18.8 nM
MOUSE BRAIN
  EC50: 1370 nM
  MOUSE BRAIN % EMAX: 48.68%
